The values below are quoted from earlier work in US10736868B2, “Compositions comprising rumenic acid-rich conjugated linoleic acid for brain health” (STEPAN SPECIALTY PRODUCTS, LLC, priority 2016, dated 2020).

The target of data set [1] is T1, PPARγ (Homo sapiens, UniProt P37231).
T1 construct: host or cells: human epithelial cells
T1 sequence (P37231 1-505): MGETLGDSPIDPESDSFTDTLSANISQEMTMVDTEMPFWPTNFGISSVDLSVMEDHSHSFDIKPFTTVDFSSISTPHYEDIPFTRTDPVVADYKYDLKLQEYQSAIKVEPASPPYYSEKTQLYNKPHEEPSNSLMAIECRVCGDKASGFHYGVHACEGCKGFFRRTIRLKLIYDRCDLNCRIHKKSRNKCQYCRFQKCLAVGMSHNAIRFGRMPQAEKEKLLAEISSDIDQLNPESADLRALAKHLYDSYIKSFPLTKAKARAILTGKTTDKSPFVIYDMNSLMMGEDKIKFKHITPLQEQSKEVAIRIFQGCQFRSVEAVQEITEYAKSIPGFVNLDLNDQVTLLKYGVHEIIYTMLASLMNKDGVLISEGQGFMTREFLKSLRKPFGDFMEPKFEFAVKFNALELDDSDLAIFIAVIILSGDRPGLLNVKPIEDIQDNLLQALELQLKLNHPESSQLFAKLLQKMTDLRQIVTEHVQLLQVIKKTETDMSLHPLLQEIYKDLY
The settings on record: human epithelial cells.

Data set [2] has as its target T2, PPARγ (Mus musculus, UniProt P37238).
T2 construct: host or cells: mouse macrophage cells
T2 sequence (P37238 1-505): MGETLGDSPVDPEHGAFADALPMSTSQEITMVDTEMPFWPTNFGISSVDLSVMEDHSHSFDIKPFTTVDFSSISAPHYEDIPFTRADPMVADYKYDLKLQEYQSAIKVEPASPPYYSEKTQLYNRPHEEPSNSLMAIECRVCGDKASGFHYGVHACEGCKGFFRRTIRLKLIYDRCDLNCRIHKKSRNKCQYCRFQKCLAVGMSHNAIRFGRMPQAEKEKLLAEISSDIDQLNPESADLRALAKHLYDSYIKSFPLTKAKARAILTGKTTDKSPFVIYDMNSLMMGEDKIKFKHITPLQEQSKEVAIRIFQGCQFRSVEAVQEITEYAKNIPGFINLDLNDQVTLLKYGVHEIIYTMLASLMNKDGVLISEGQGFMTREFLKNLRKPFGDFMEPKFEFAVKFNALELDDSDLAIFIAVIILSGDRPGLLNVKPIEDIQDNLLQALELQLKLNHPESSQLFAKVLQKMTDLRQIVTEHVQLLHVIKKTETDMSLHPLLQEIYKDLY
The conditions noted are these: mouse macrophage cells.

Data set [3] concerns allergic responses mediated by inflammation. The conditions noted are these: 8 weeks; young men and women with birch pollen allergy.
The test system of data set [4] is cognitive function. The settings on record: hypertensive older adults.
Data set [5] concerns cognitive function. The settings on record: hypertensive older adults. This is another data set of the same source.

Molecules are shown by their SMILES. Like-named read-outs stand apart in the source and are kept apart here.

As to `CCCCCC/C=C/C=C\CCCCCCCC(=O)O` [RA, cis-9, trans-11 linoleic acid], at PPARγ [1], the “inflammatory responses via activation of PPARγ” value is recorded as “reduced”. Besides, the PPARγ activation entry at PPARγ [2] is given as “activated”. Further, in data set [3], the “allergic responses mediated by inflammation” value is “reduced”.
For `CCCCc1nc(Cl)c(CO)n1Cc1ccc(-c2ccccc2-c2nn[nH]n2)cc1` [losartan], in the data set on cognitive function [4], the verbal fluency entry is “not”; the “word list memory and recall” value is recorded as “improved”.
`CCCCC(=O)N(Cc1ccc(-c2ccccc2-c2nnn[nH]2)cc1)[C@H](C(=O)O)C(C)C` [valsartan]: in the data set with cognitive function [5], the “identification, verbal fluency, or word list recognition” value is recorded as “did not influence”; the “word list memory and recall” value is “improved”.
